Results reported in PubChem BioAssay (NCI).
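Step 1: Grow cells in 96-well plates. Step 2: Expose to compound for 48 hours at 5 concentrations. Step 3: Interpolate endpoints linearly; if unreached, use highest concentration. Abbreviation: GI50, concentration required for 50% inhibition of growth. At the TGI there is no net growth.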

What was measured:
Assay in all cases: NCI anticancer screen, dose series, 48 h; in the data active means GI50 below about 0.43 µM; inactive means the rest
OVCAR-8 ovarian = test system: OVCAR-8 ovarian
RXF 393 renal = test system: RXF 393 renal
M14 melanoma = test system: M14 melanoma
BT-549 breast = test system: BT-549 breast
IGROV1 ovarian = test system: IGROV1 ovarian
LOX IMVI melanoma = test system: LOX IMVI melanoma
MCF7 breast = test system: MCF7 breast
TK-10 renal = test system: TK-10 renal
UACC-257 melanoma = test system: UACC-257 melanoma
OVCAR-4 ovarian = test system: OVCAR-4 ovarian
MOLT-4 leukemia = test system: MOLT-4 leukemia
MALME-3M melanoma = test system: MALME-3M melanoma
SF-295 CNS = test system: SF-295 CNS
MDA-MB-435 = test system: MDA-MB-435
HS 578T breast = test system: HS 578T breast
NCI-H522 lung = test system: NCI-H522 lung
A549 NSCLC = test system: A549 NSCLC
CCRF-CEM leukemia = test system: CCRF-CEM leukemia
HCC-2998 colon = test system: HCC-2998 colon
HCT-116 colon = test system: HCT-116 colon
SN12C renal = test system: SN12C renal
OVCAR-3 ovarian = test system: OVCAR-3 ovarian
HOP-62 NSCLC = test system: HOP-62 NSCLC
DU-145 prostate = test system: DU-145 prostate
KM12 colon = test system: KM12 colon
786-0 renal = test system: 786-0 renal
SR leukemia = test system: SR leukemia
SW-620 colon = test system: SW-620 colon
HL-60(TB) leukemia = test system: HL-60(TB) leukemia
SF-539 CNS = test system: SF-539 CNS
U251 CNS = test system: U251 CNS
SNB-75 CNS = test system: SNB-75 CNS
MDA-MB-231 breast = test system: MDA-MB-231 breast
CAKI-1 renal = test system: CAKI-1 renal
SF-268 CNS = test system: SF-268 CNS
PC-3 prostate = test system: PC-3 prostate
COLO 205 colon = test system: COLO 205 colon
ACHN renal = test system: ACHN renal
HT29 colon = test system: HT29 colon
T-47D breast = test system: T-47D breast
NCI-H226 lung = test system: NCI-H226 lung
OVCAR-5 ovarian = test system: OVCAR-5 ovarian
K-562 leukemia = test system: K-562 leukemia
SNB-19 CNS = test system: SNB-19 CNS
NCI/ADR-RES ovarian = test system: NCI/ADR-RES ovarian
HOP-92 NSCLC = test system: HOP-92 NSCLC
EKVX NSCLC = test system: EKVX NSCLC
RPMI-8226 leukemia = test system: RPMI-8226 leukemia
SK-OV-3 ovarian = test system: SK-OV-3 ovarian
UO-31 renal = test system: UO-31 renal
UACC-62 melanoma = test system: UACC-62 melanoma
SK-MEL-5 melanoma = test system: SK-MEL-5 melanoma
NCI-H460 lung = test system: NCI-H460 lung
A498 renal = test system: A498 renal
HCT-15 colon = test system: HCT-15 colon
SK-MEL-28 melanoma = test system: SK-MEL-28 melanoma
SK-MEL-2 melanoma = test system: SK-MEL-2 melanoma

C#C[C@]1(O)CC[C@H]2[C@@H]3CC=C4c5sc(Nc6ccc(Cl)cn6)nc5CC[C@]4(C)[C@H]3CC[C@@]21C
3.68 µM: TGI (SK-MEL-28 melanoma)
4.18 µM: TGI (RPMI-8226 leukemia)
6.53 µM: TGI (HS 578T breast)
73.4 µM: TGI (HOP-92 NSCLC)
4.75 µM: TGI (A498 renal)
4.03 µM: TGI (SF-539 CNS)
25.2 µM: TGI (BT-549 breast)
3.42 µM: TGI (786-0 renal)
inactive: GI50 (OVCAR-8 ovarian) 6.32 µM | GI50 (RXF 393 renal) 0.642 µM | GI50 (M14 melanoma) 3.12 µM | GI50 (BT-549 breast) 2.88 µM | GI50 (IGROV1 ovarian) 9.14 µM | GI50 (LOX IMVI melanoma) 2.1 µM | GI50 (MCF7 breast) 1.8 µM | GI50 (TK-10 renal) > 100 µM | GI50 (UACC-257 melanoma) 2.49 µM | GI50 (OVCAR-4 ovarian) 7.73 µM | GI50 (MOLT-4 leukemia) 2.79 µM | GI50 (MALME-3M melanoma) 8.97 µM | GI50 (SF-295 CNS) 1.82 µM | GI50 (MDA-MB-435) 3.73 µM | GI50 (HS 578T breast) 2.17 µM | GI50 (NCI-H522 lung) 10.5 µM | GI50 (A549 NSCLC) 6.4 µM | GI50 (HCC-2998 colon) 66.8 µM | GI50 (HCT-116 colon) 3.47 µM | GI50 (SN12C renal) > 100 µM | GI50 (OVCAR-3 ovarian) 7.66 µM | GI50 (HOP-62 NSCLC) 3.31 µM | GI50 (DU-145 prostate) > 100 µM | GI50 (KM12 colon) 4.04 µM | GI50 (786-0 renal) 1.56 µM | GI50 (SR leukemia) 3.08 µM | GI50 (SW-620 colon) 4.77 µM | GI50 (HL-60(TB) leukemia) 3.5 µM | GI50 (SF-539 CNS) 1.62 µM | GI50 (U251 CNS) 2.66 µM | GI50 (SNB-75 CNS) 4.07 µM | GI50 (MDA-MB-231 breast) 3.34 µM | GI50 (CAKI-1 renal) 3.48 µM | GI50 (SF-268 CNS) 4.35 µM | GI50 (PC-3 prostate) 1.68 µM | GI50 (COLO 205 colon) 23.5 µM | GI50 (ACHN renal) 5.07 µM | GI50 (HT29 colon) 6.83 µM | GI50 (T-47D breast) 61.2 µM | GI50 (NCI-H226 lung) 7.41 µM | GI50 (OVCAR-5 ovarian) 24.1 µM | GI50 (K-562 leukemia) 3.34 µM | GI50 (SNB-19 CNS) 4.95 µM | GI50 (NCI/ADR-RES ovarian) 15.9 µM | GI50 (HOP-92 NSCLC) 3.45 µM | GI50 (EKVX NSCLC) 3.51 µM | GI50 (RPMI-8226 leukemia) 1.03 µM | GI50 (SK-OV-3 ovarian) 3.44 µM | GI50 (UO-31 renal) 2.96 µM | GI50 (UACC-62 melanoma) 3.23 µM | GI50 (SK-MEL-5 melanoma) 79.5 µM | GI50 (NCI-H460 lung) 3.95 µM | GI50 (A498 renal) 2.15 µM | GI50 (HCT-15 colon) 3.03 µM | GI50 (SK-MEL-28 melanoma) 1.72 µM | GI50 (SK-MEL-2 melanoma) 3.83 µM
4.47 µM: TGI (MCF7 breast)
6.91 µM: TGI (PC-3 prostate)
4.33 µM: TGI (LOX IMVI melanoma)
active: GI50 (CCRF-CEM leukemia) 0.0721 µM
13.4 µM: TGI (SK-OV-3 ovarian)
3.75 µM: TGI (SF-295 CNS)
> 100 µM: TGI (OVCAR-8 ovarian) | TGI (M14 melanoma) | TGI (IGROV1 ovarian) | TGI (TK-10 renal) | TGI (OVCAR-4 ovarian) | TGI (MOLT-4 leukemia) | TGI (MALME-3M melanoma) | TGI (MDA-MB-435) | TGI (NCI-H522 lung) | TGI (A549 NSCLC) | TGI (CCRF-CEM leukemia) | TGI (HCC-2998 colon) | TGI (HCT-116 colon) | TGI (SN12C renal) | TGI (OVCAR-3 ovarian) | TGI (HOP-62 NSCLC) | TGI (DU-145 prostate) | TGI (KM12 colon) | TGI (SR leukemia) | TGI (SW-620 colon) | TGI (HL-60(TB) leukemia) | TGI (U251 CNS) | TGI (SNB-75 CNS) | TGI (MDA-MB-231 breast) | TGI (CAKI-1 renal) | TGI (SF-268 CNS) | TGI (COLO 205 colon) | TGI (ACHN renal) | TGI (HT29 colon) | TGI (T-47D breast) | TGI (NCI-H226 lung) | TGI (OVCAR-5 ovarian) | TGI (K-562 leukemia) | TGI (SNB-19 CNS) | TGI (NCI/ADR-RES ovarian) | TGI (EKVX NSCLC) | TGI (UO-31 renal) | TGI (UACC-62 melanoma) | TGI (SK-MEL-5 melanoma) | TGI (NCI-H460 lung) | TGI (HCT-15 colon) | TGI (SK-MEL-2 melanoma)
6.65 µM: TGI (UACC-257 melanoma)
2.25 µM: TGI (RXF 393 renal)
